Assays:
[1] = tested on: T1, G6PDH, hepatopancreas, aerobic control (high phosphate form); test: spectrophotometric NADPH production at […] nm; assay type: biochemical, Littorina littorea; conditions: pH 8.0, 50 mM Tris-HCl, 22 °C
T1 construct: gene G6PD; native enzyme in Sephadex G-50 filtered hepatopancreas extract of aerobic control snails (bought at Kowloon Market, Ottawa); serine-phosphorylated, high phosphate form; not purified for kinetics

[2] = tested on: T2, G6PDH, hepatopancreas, 24 h anoxic (low phosphate form); test: spectrophotometric NADPH production at […] nm; assay type: biochemical, Littorina littorea; conditions: pH 8.0, 50 mM Tris-HCl, 22 °C
T2 construct: gene G6PD; native enzyme in Sephadex G-50 filtered hepatopancreas extract of 24 h anoxic snails; low phosphate form, same gene product as P1; not purified for kinetics

| Km ([1]; optimal G6P (4 mM)) | Km ([2]; optimal G6P (4 mM)) | Km ([1]; optimal NADP+ (1.0 mM)) | Km ([2]; optimal NADP+ (1.0 mM)) | Structure (SMILES) |
| --- | --- | --- | --- | --- |
| 117 ± 6 µM | 115 ± 8 µM | – | – | NC(=O)c1ccc[n+]([C@@H]2O[C@H](COP(=O)(O)OP(=O)(O)OC[C@H]3O[C@@H](n4cnc5c(N)ncnc54)[C@H](OP(=O)(O)O)[C@@H]3O)[C@@H](O)[C@H]2O)c1 [NADP^+] |
| – | – | 97 ± 6 µM | 60 ± 3 µM | O=P(O)(O)OC[C@H]1OC(O)[C@H](O)[C@@H](O)[C@@H]1O (stereo partly shown) [G6P] |
